Laboratory results reported in patent US20250186442A1, “Obicetrapib and Ezetimibe Combination Treatment and Fixed Dose Pharmaceutical Compositions” (NewAmsterdam Pharma B.V., priority 2022, published 2025).

Assays:
[1] = healthy volunteers; single doses up to 150 mg and multiple doses up to 25 mg/day for 21 days; cited from earlier work
P-glycoprotein = target: T1, P-glycoprotein (Homo sapiens, UniProt P08183); settings: TA-8995-05; cited from earlier work
T1 construct: endogenous in cells; host or cells: study subjects in vivo (clinical study)

LDL-C [2] = settings: cited from earlier work
HDL-C = settings: TA-8995-03; 10 mg daily dose, mild dyslipidemia; cited from earlier work
[3] = TA-8995-07, healthy males; cited from earlier work
LDL-C [4] = assay: ROSE2 phase 2b clinical trial - LDL-C; format: in vivo, human; settings: for LDL-C Change from Baseline to Day 28, Mean / LDL-C Change from Baseline to Day 28, Median / LDL-C Change from Baseline to Day 84, Mean / LDL-C Change from Baseline to Day 84, Median / LDL-C Day 28, Mean / LDL-C Day 28, Median / LDL-C Day 84, Mean / LDL-C Day 84, Median / LDL-C Percent Change from Baseline to Day 28 (%), Mean / LDL-C Percent Change from Baseline to Day 28 (%), Median / LDL-C Percent Change from Baseline to Day 84 (%), Mean / LDL-C Percent Change from Baseline to Day 84 (%), Median: obicetrapib 10 mg, ezetimibe 10 mg
Description: The primary objective of this study is to evaluate the effect of obicetrapib 10 mg+ezetimibe 10 mg combination therapy compared with placebo, when used as an adjunct to high-intensity statin therapy, on LDL-C at Day 84.
The secondary objectives of this study include the following, in hierarchical order: • To evaluate the effect of obicetrapib 10 mg monotherapy compared with placebo, when used as an adjunct to high-intensity statin therapy, on LDL-C at Day 84; • To evaluate the effect of obicetrapib 10 mg+ezetimibe 10 mg combination therapy compared with placebo, when used as an adjunct to high-intensity statin therapy, on ApoB at Day 84; and • To evaluate the effect of obicetrapib 10 mg monotherapy compared with placebo, when used as an adjunct to high-intensity statin therapy, on ApoB at Day 84.
This study will be a placebo-controlled, double-blind, randomized, Phase 2 study to evaluate the efficacy, safety, and tolerability of obicetrapib 10 mg, both in combination with ezetimibe 10 mg and as monotherapy, as an adjunct to high-intensity statin therapy. This study will take place at approximately 20 sites in the United States.
Up to 2 weeks after the Screening Visit, participants will return to the site on Day 1 (Visit 2) and confirm study eligibility before being randomized and beginning treatment. Approximately 114 eligible participants (38 participants per treatment group) will be randomized in a 1:1:1 ratio to 1 of the following treatment groups: • Combination therapy: Obicetrapib 10 mg+ezetimibe 10 mg (administered as one 10 mg obicetrapib tablet and one 10 mg ezetimibe capsule); • Obicetrapib monotherapy: Obicetrapib 10 mg (administered as one 10 mg obicetrapib tablet and 1 placebo capsule); or • Placebo (administered as 1 placebo tablet and 1 placebo capsule).
During the 12-week Treatment Period, the assigned study drugs will be administered by the participants orally with water, once daily on Day 1 to Day 84 at approximately the same time each morning. Participants will return to the site on Day 28 (+2 days), Day 84 (+2 days), and Day 112 (+2 days) for efficacy, safety, and pharmacokinetic (PK) assessments. Participants, Investigators, the Clinical Research Organization (CRO), and the Sponsor will be blinded to all lipid results from Day 1 (Visit 2) for the first participant until all enrolled participants complete the Day 84 (End of Treatment) visit or are withdrawn from the study, in order to protect blinding to treatment assignment.
The primary efficacy endpoint is the percent change from Day 1 to Day 84 in LDL-C for the obicetrapib 10 mg+ezetimibe 10 mg combination treatment group compared with the placebo group.
The secondary efficacy endpoints include the following, in hierarchical order: • Percent change from Day 1 to Day 84 in LDL-C for the obicetrapib 10 mg monotherapy • treatment group compared with the placebo group; • Percent change from Day 1 to Day 84 in ApoB for the obicetrapib 10 mg+ezetimibe 10 mg • combination treatment group compared with the placebo group; and • Percent change from Day 1 to Day 84 in ApoB for the obicetrapib 10 mg monotherapy treatment group compared with the placebo group.
The exploratory efficacy endpoints include the following: • Percent change from Day 1 to Day 84 in non-HDL-C, VLDL-C, HDL-C, TG, ApoE, Lp(a), and HDL-ApoE for the obicetrapib 10 mg+ezetimibe 10 mg combination treatment group compared with the placebo group and for the obicetrapib 10 mg monotherapy treatment group compared with the placebo group; and • Proportion of participants at Day 84 that achieve LDL-C<2.6 mmol/L (<100 mg/dL), LDL-C<1.8 mmol/L (<70 mg/dL), and LDL-C<1.3 mmol/L (<50 mg/dL) for the obicetrapib 10 mg+ezetimibe 10 mg combination treatment group compared with the placebo group and for the obicetrapib 10 mg monotherapy treatment group compared with the placebo group. […]

Lp(a) = settings: TA-8995-06; following 12 weeks of treatment; cited from earlier work

T1 sequence (P08183 whole entry): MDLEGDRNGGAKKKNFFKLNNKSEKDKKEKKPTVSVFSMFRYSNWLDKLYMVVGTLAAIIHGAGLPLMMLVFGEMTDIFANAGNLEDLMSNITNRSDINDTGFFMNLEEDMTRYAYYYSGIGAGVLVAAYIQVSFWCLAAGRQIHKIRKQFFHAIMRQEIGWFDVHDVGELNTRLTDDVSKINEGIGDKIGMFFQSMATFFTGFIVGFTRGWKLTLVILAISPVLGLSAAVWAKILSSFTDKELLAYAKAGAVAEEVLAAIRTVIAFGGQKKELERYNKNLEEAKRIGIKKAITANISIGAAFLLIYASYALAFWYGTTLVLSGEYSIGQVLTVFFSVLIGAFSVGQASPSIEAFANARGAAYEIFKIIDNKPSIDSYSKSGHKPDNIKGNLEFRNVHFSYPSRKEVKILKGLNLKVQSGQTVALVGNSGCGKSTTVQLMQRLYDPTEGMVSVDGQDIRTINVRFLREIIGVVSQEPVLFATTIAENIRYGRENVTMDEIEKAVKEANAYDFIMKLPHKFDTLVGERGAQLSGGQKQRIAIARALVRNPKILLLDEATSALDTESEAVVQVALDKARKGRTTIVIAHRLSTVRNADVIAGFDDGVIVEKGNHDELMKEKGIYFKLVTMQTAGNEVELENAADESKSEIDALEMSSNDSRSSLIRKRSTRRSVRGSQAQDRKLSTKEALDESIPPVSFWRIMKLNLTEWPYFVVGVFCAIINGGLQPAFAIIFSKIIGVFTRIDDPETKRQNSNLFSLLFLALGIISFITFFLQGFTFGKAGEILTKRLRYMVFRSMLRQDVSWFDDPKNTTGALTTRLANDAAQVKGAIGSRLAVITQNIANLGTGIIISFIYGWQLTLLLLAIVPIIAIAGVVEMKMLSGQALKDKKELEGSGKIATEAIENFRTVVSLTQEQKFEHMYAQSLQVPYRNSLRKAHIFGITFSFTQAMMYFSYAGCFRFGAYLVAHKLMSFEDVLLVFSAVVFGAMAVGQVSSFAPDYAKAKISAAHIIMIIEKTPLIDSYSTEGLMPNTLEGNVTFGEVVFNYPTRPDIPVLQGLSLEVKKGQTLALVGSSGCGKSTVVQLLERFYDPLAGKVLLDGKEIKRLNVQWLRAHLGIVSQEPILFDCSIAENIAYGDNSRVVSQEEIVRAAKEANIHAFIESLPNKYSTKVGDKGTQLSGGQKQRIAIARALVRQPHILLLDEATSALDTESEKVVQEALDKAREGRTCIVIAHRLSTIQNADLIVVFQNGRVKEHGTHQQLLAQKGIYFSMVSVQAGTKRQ

CCOC(=O)N1c2ccc(C(F)(F)F)cc2[C@@H](N(Cc2cc(C(F)(F)F)cc(C(F)(F)F)c2)c2ncc(OCCCC(=O)O)cn2)C[C@H]1CC [Obicetrapib, {4-[(2-{[3,5-bis(trifluoromethyl)benzyl][(2R,4S)-1-(ethoxycarbonyl)-2-ethyl-6-(trifluoromethyl)-1,2,3,4-tetrahydroquinolin-4-yl]amino}pyrimidin-5-yl)oxy]butanoic acid}]
tolerability [1]: generally well tolerated | effect on P-glycoprotein activity (P-glycoprotein): no significant effect | LDL-C reduction (LDL-C [2]; TA-8995-03, 10 mg daily dose, mild dyslipidemia): 45.4% | additional reduction in LDL-C (LDL-C [2]; obicetrapib 10 mg on top of atorvastatin 20 mg): 50.3% | HDL-C efflux capacity (HDL-C): significant increase | HDL-C increase (HDL-C): 179.0% | absorption [3]: steadily absorbed | principal route of excretion [3]: in the feces | LDL-C Change from Baseline to Day 28, Mean (LDL-C [4]; Exploratory Population): -43.0 mg/dL | LDL-C Change from Baseline to Day 28, Median (LDL-C [4]; Exploratory Population): -45.0 mg/dL | LDL-C Change from Baseline to Day 84, Mean (LDL-C [4]; Exploratory Population): -39.9 mg/dL | LDL-C Change from Baseline to Day 84, Median (LDL-C [4]; Exploratory Population): -38.5 mg/dL | LDL-C Day 28, Mean (LDL-C [4]; Exploratory Population): 57.6 mg/dL | LDL-C Day 28, Median (LDL-C [4]; Exploratory Population): 51.5 mg/dL | LDL-C Day 84, Mean (LDL-C [4]; Exploratory Population): 60.7 mg/dL | LDL-C Day 84, Median (LDL-C [4]; Exploratory Population): 55.5 mg/dL | LDL-C Percent Change from Baseline to Day 28 (%), Mean (LDL-C [4]; Exploratory Population): −43.59% | LDL-C Percent Change from Baseline to Day 28 (%), Median (LDL-C [4]; Exploratory Population): −43.90% | LDL-C Percent Change from Baseline to Day 84 (%), Mean (LDL-C [4]; Exploratory Population): −39.35% | LDL-C Percent Change from Baseline to Day 84 (%), Median (LDL-C [4]; Exploratory Population): −43.50% | median reduction in LDL-C (LDL-C [4]; ROSE2 phase 2b (NCT05266586), obicetrapib 10 mg with or without ezetimibe 10 mg): 39% | LDL-C Change from Baseline to Day 28, Mean (LDL-C [4]; mITT Population): -33.2 mg/dL | LDL-C Change from Baseline to Day 28, Median (LDL-C [4]; mITT Population): -35.0 mg/dL | LDL-C Change from Baseline to Day 84, Mean (LDL-C [4]; mITT Population): -21.3 mg/dL | LDL-C Change from Baseline to Day 84, Median (LDL-C [4]; mITT Population): -29.5 mg/dL | LDL-C Day 28, Mean (LDL-C [4]; mITT Population): 70.3 mg/dL | LDL-C Day 28, Median (LDL-C [4]; mITT Population): 56.0 mg/dL | LDL-C Day 84, Mean (LDL-C [4]; mITT Population): 82.7 mg/dL | LDL-C Day 84, Median (LDL-C [4]; mITT Population): 65.0 mg/dL | LDL-C Percent Change from Baseline to Day 28 (%), Mean (LDL-C [4]; mITT Population): −32.21% | LDL-C Percent Change from Baseline to Day 28 (%), Median (LDL-C [4]; mITT Population): −41.70% | LDL-C Percent Change from Baseline to Day 84 (%), Mean (LDL-C [4]; mITT Population): −18.92% | LDL-C Percent Change from Baseline to Day 84 (%), Median (LDL-C [4]; mITT Population): −32.35% | Lp(a) levels (Lp(a)): statistically significant reduction
